# Patent publication US9458113B2 (Boehringer Ingelheim International GmbH, priority 2014, dated 2016)
# How the values were obtained:
# [1] = Drug transport across human Caco-2 cells; format: in vitro ADME; details: apparent permeability coefficient, Caco-2 monolayers, pH 7.2, 37° C.; for Papp A→B at 10 µM: apical-to-basal (absorptive), read-out: PEAB; for Papp B→A at 10 µM: basal-to-apical (secretory), read-out: PEBA
# From the text: Assay for Determination of Drug Transport Across Human Caco-2 Cells
# The assay provides information on the potential of a compound to pass the cell membrane, on the extent of oral absorption as well as on whether the compound is actively transported by uptake and/or efflux transporters. For the measurement of permeability across polarized, confluent human cancer colon carcinoma cells 2 (Caco-2) cell monolayers grown on permeable filter supports are used as the in vitro absorption model.
# Apparent permeability coefficients (PE) of the compounds across the Caco-2 monolayers are measured (pH 7.2, 37° C.) in apical-to-basal (AB) (absorptive) and basal-to-apical (BA) (secretory) transport direction. AB permeability (PEAB) represents drug absorption from the intestine into the blood and BA permeability (PEBA) drug secretion from the blood back into the intestine via both passive permeability as well as active transport mechanisms mediated by efflux and uptake transporters that are expressed on the Caco-2 cells. The compounds are assigned to permeability/absorption classes by comparison of the AB permeabilities with the AB permeabilities of reference compounds with known in vitro permeability and oral absorption in the human. Identical or similar permeabilities in both transport directions indicate passive permeation, vectorial permeability points to additional active transport mechanisms. […] Active transport is concentration-dependently saturable.
# Caco-2 cells (1-2*10^5 cells/cm^2 area) are seeded on filter inserts (Costar transwell polycarbonate or PET filters, 0.4 μm pore size) and cultured (DMEM) for 10 to 25 days. Compounds are dissolved in appropriate solvent (like DMSO, […] stock solutions). Stock solutions are diluted with HTP-4 buffer (128.13 mM NaCl, 5.36 mM KCl, 1 mM MgSO4, 1.8 mM CaCl2, 4.17 mM NaHCO3, 1.19 mM Na2HPO4x7H2O, 0.41 mM NaH2PO4xH2O, 15 mM HEPES, 20 mM glucose, pH 7.2) to prepare the transport solutions (typically 10 μM compound, final DMSO<=0.5%). The transport solution (TL) is applied to the apical or basolateral donor side for measuring A-B or B-A permeability (3 filter replicates), respectively. The receiver side contains HTP-4 buffer supplemented with 2% BSA. Samples are collected at the start and end of experiment from the donor and at various time intervals for up to 2 hours also from the receiver side for concentration measurement by LC-MS/MS or scintillation counting. Sampled receiver volumes are replaced with fresh receiver solution.
# The apparent permeability coefficients (PEAB and PEBA) of selected compounds in the Caco-2 drug transport assay described above are listed in Table 16.
# [2] = tested on: human hepatocytes; test: Metabolic stability with human hepatocytes; format: in vitro ADME; details: 1 μM test compound, well stirred model
# Experimental: Assay for the Determination of Metabolic Stability with Human Hepatocytes
# The metabolic degradation of the test compound is assayed in a human hepatocyte suspension. Human hepatocytes (typically cryopreserved) are incubated in an appropriate buffer system (e.g. Dulbecco's modified eagle medium plus 3.5 μg glucagon/500 mL, 2.5 mg insulin/500 mL and 3.75 mg/500 mL hydrocortison) containing 5% species serum. Following a (typically) […] preincubation in an incubator (37° C., 10% CO2), 5 μl of test compound solution (80 μM; from […] stock solution in DMSO diluted 1:25 with medium) are added into 395 μl hepatocyte suspension (cell density in the range 0.25-5*10^6 cells/mL, typically 1*10^6 cells/mL; final concentration of test compound 1 μM, final DMSO concentration 0.05%). The cells are incubated for six hours (incubator, orbital shaker) and samples (25 μl) are taken at 0, 0.5, 1, 2, 4 and 6 hours. Samples are transferred into acetonitrile and pelleted by centrifugation (5 min) The supernatant is transferred to a new 96-deepwell plate, evaporated under nitrogen and resuspended. The decline of parent compound is analyzed by LC-MS/MS.
# The intrinsic clearance CL_[…] is calculated as follows: CL_[…]=Dose/AUC=(C0/CD)/(AUD+clast/k)*1,000/60
# (C0: initial concentration in the incubation [μM], CD: cell density of vital cells [10^6 cells/mL], AUD: area under the data [μM*h], clast: concentration of last data point [μM], k: slope of the regression line for parent decline [h^−1])
# The calculated in vitro hepatic intrinsic clearance Qh can be scaled up to the intrinsic in vivo hepatic clearance and used to predict hepatic in vivo blood clearance (CL) by the use of a liver model (well stirred model): CL_[…]_INVIVO [ml/min/kg]=(CL_[…] [μL/min/10^6 cells]*hepatocellularity [10^6 cells/g liver]*liver factor [g/kg bodyweight])/1,000 CL [ml/min/kg]=CL_[…]_INVIVO [ml/min/kg]*hepatic blood flow [ml/min/kg]/(CL_[…]_INVIVO [ml/min/kg]+hepatic blood flow [ml/min/kg]) Qh [%]=CL [ml/min/kg]/hepatic blood flow [ml/min/kg])
# (Hepatocellularity, human: 120*10^6 cells/g liver; liver factor, human: 25.7 g/kg bodyweight; blood flow, human: 21 ml/(min*kg))
# The calculated in-vitro hepatic intrinsic clearance values of selected compounds in the metabolic stability assay with human hepatocytes described above are listed in Table 15.
# [3] = Metabolic stability with human liver microsomes; format: in vitro ADME; details: pH 7.6; pooled human liver microsomes, 1 μM test compound, 37° C.; read-out: t1/2 INVITRO
# [4] = target: neutrophil elastase in zymosan-stimulated human plasma (Homo sapiens (Human), UniProt P08246); test: Neutrophil elastase inhibitory activity in human plasma; format: biochemical; details: human plasma from zymosan-stimulated blood
# Experimental: Assay for the Determination of Neutrophil Elastase Inhibitory Activity in Human Plasma
# Citrated blood from human healthy donors is mixed with zymosan suspension and incubated at room temperature. This leads to the stimulation of neutrophils and the release of neutrophil elastase into the plasma. The stimulated blood is centrifuged to generate the neutrophil elastase enriched plasma.
# Various concentrations of the neutrophil elastase inhibitor are incubated with plasma. […] A dose response curve is generated to calculate the EC50 of the inhibitor.
# [5] = target: Human neutrophil elastase (Homo sapiens (Human), UniProt P08246); test: Human Neutrophil Elastase Assay; format: biochemical; details: substrate MeOSuc-Ala-Ala-Pro-Val-AMC 250 μM, pH 7.5
# Experimental: The following buffers were used: Compound buffer: 100 mM Tris, 500 mM NaCl, adjusted to pH 7.5; Assay buffer: 100 mM Tris, 500 mM NaCl, adjusted to pH 7.5, containing 0.01% BSA.
# Assay conditions: Test compounds were prediluted in DMSO and subsequently in compound buffer (5% DMSO final). […] After inactivation of the enzyme, fluorescence intensities were measured at 380 nm excitation and 460 nm emission wavelengths.
# Each plate contains wells with a high value control (DMSO+enzyme+substrate) and wells with a low value control (DMSO+inactivated enzyme+substrate). IC50 values were estimated using a sigmoidal concentration response curve with variable slope. Means of low values were taken as 0%, means of high values as 100%.
# [6] = Aqueous solubility (High Throughput Method); format: physicochemical; details: McIlvaine buffer pH 6.8 with 2.5% DMSO, kinetic from dmso stock, McIlvaine buffer pH 6.8, 2.5% DMSO, 24 h shaking
# Experimental: Assay for Determination of Aqueous Solubility (“High Throughput Method”)
# Starting from a […] DMSO stock solution, aliquots are diluted with acetonitrile/water (1/1) and McIlvaine buffer pH 6.8, respectively. After 24 h of shaking, the solutions or suspensions are filtered and analyzed by LC-UV. The amount dissolved in buffer is compared to the amount dissolved in the acetonitrile/water (1/1) solution. Solubility is measured from 0.001 to 0.125 mg/ml at a DMSO concentration of 2.5%. If more than 90% of the compound is dissolved in buffer, the value is marked with “>”.
# [7] = Aqueous solubility (Shaked Flask Method); format: physicochemical; details: aqueous buffer, thermodynamic from solid, pH 6.8
# Experimental: Assay for Determination of Aqueous Solubility (“Shaked Flask Method”)
# Saturated solutions are prepared in well plates by adding an appropriate volume of selected aqueous media (typically in the range of 0.25-1.5 ml) into each well which contains a known quantity of solid drug substance (typically in the range 0.5-5.0 mg). The wells are shaken or stirred for a predefined time period (typically in a range of 2-24 h) and then filtered using appropriate filter membranes (typically PTFE-filters with 0.45 μm pore size). Filter absorption is avoided by discarding the first few drops of filtrate. The amount of dissolved drug substance is determined by UV spectroscopy or by HPLC with UV-detection. In addition, the pH of the aqueous saturated solution is measured using a glass-electrode pH meter.
# Human neutrophil elastase, sequence (P08246 30-247): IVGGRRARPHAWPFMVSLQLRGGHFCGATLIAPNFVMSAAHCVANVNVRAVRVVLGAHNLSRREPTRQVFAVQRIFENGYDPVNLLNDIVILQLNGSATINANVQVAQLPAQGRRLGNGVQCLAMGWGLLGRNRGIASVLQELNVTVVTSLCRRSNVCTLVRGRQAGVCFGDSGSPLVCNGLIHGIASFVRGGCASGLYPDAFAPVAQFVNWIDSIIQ
# neutrophil elastase in zymosan-stimulated human plasma, sequence (P08246 30-247): as above
Compound,Papp A→B at 10 µM [1],Papp B→A at 10 µM [1],Qh [2],half-life at 1 μM [3],EC50 [4],IC50 [5],solubility at 24 h [6],solubility [7]
"CN1C(=O)N(c2cccc(C(F)(F)F)c2)C2=C(C(=O)CCC2)C1c1ccc(C#N)cc1-c1ccn(C)c(=O)c1 (single isomer, unassigned) [Example 20.b, 4-[3-Methyl-2,5-dioxo-1-(3-trifluoromethyl-phenyl)-1,2,3,4,5,6,7,8-octahydro-quinazolin-4-yl]-3-(1-methyl-2-oxo-1,2-dihydro-pyridin-4-yl)-benzonitrile]",6.2 ×10⁻⁶ cm/s,95 ×10⁻⁶ cm/s,5%,–,–,–,–,–
CNC(=O)c1cc(C#N)ccc1[C@@H]1C2=C(CCC2=O)N(c2cccc(C(F)(F)F)c2)C(=O)N1C [Example 2.1],14 ×10⁻⁶ cm/s,78 ×10⁻⁶ cm/s,9%,> 2.17 h,2 nM,1.8 nM,–,–
CN1C(=O)N(c2cccc(C(F)(F)F)c2)C2=C(C(=O)CC2)C1c1ccc(C#N)cc1-c1cnn(C)c1 (stereo not drawn) [Example 11.2],61 ×10⁻⁶ cm/s,76 ×10⁻⁶ cm/s,24%,2 h,2 nM,< 1 nM,–,–
"Cc1nnc(-c2cc(C#N)ccc2C2C3=C(CCC3=O)N(c3cccc(C(F)(F)F)c3)C(=O)N2C)o1 (stereo not drawn) [Example 13.1, 4-[3-Methyl-2,5-dioxo-1-(3-trifluoromethyl-phenyl)-2,3,4,5,6,7-hexahydro-1H-cyclopentapyrimidin-4-yl]-3-(5-methyl-[1,3,4]oxadiazol-2-yl)-benzonitrile]",49 ×10⁻⁶ cm/s,72 ×10⁻⁶ cm/s,16%,> 2.17 h,2 nM,2.2 nM,–,–
"CN1C(=O)N(c2cccc(C(F)(F)F)c2)C2=C(C(=O)CCC2)C1c1ccc(C#N)cc1-c1ccn(C)c(=O)c1 (stereo not drawn) [Example 15.8, 4-[3-Methyl-2,5-dioxo-1-(3-trifluoromethyl-phenyl)-1,2,3,4,5,6,7,8-octahydro-quinazolin-4-yl]-3-(1-methyl-2-oxo-1,2-dihydro-pyridin-4-yl)-benzonitrile]",3.5 ×10⁻⁶ cm/s,57 ×10⁻⁶ cm/s,–,> 2.17 h,4 nM,1.2 nM,–,–
"CN1C(=O)N(c2cccc(C(F)(F)F)c2)C2=C(C(=O)CCC2)[C@H]1c1ccc(C#N)cc1-c1ccn(C)c(=O)c1 [Example 20.b, 4-[3-Methyl-2,5-dioxo-1-(3-trifluoromethyl-phenyl)-1,2,3,4,5,6,7,8-octahydro-quinazolin-4-yl]-3-(1-methyl-2-oxo-1,2-dihydro-pyridin-4-yl)-benzonitrile]",–,–,–,> 2.17 h,1 nM,< 1 nM,72 µg/mL,> 10 µg/mL
CN1C(=O)N(c2cccc(C(F)(F)F)c2)C2=C(C(=O)CC2)C1c1ccc(C#N)cc1-c1cncnc1 (stereo not drawn) [Example 21],52 ×10⁻⁶ cm/s,67 ×10⁻⁶ cm/s,23%,> 2.17 h,2 nM,1.3 nM,50 µg/mL,> 10 µg/mL
"CN1C(=O)N(c2cccc(C(F)(F)F)c2)C2=C(C(=O)CC2)C1c1ccc(C#N)cc1-c1ccncn1 (stereo not drawn) [Example 22, 4-[3-Methyl-2,5-dioxo-1-(3-trifluoromethyl-phenyl)-2,3,4,5,6,7-hexahydro-1H-cyclopentapyrimidin-4-yl]-3-pyrimidin-4-yl-benzonitrile]",52 ×10⁻⁶ cm/s,77 ×10⁻⁶ cm/s,12%,> 2.17 h,6 nM,3.8 nM,83 µg/mL,> 10 µg/mL
"CN1C(=O)N(c2cccc(C(F)(F)F)c2)C2=C(C(=O)CC2)[C@H]1c1ccc(C#N)cc1CNC1CCOCC1 [Example 25, 4-[(R)-3-Methyl-2,5-dioxo-1-(3-trifluoromethyl-phenyl)-2,3,4,5,6,7-hexahydro-1H-cyclopentapyrimidin-4-yl]-3-[(tetrahydro-pyran-4-ylamino)-methyl]-benzonitrile]",16 ×10⁻⁶ cm/s,96 ×10⁻⁶ cm/s,20%,> 2.17 h,7 nM,1.9 nM,–,> 10 µg/mL
